Results reported in patent publication US20250353848A1, “HETEROCYCLIC PAD4 INHIBITORS” (Celgene Corporation, priority 2022, published 2025).

Tests used:
hPAD4 enzyme [1] = biological target: T1, hPAD4 enzyme (Homo sapiens, UniProt Q9UM07); experiment: RFMS Assay 1 (rapid-fire mass spectrum PAD4 inhibition assay, BAEE substrate); format: biochemical; conditions: 5 nM hPAD4 enzyme, 250 μM BAEE, 30 mins compound and enzyme preincubation at 37° C., 90 min enzyme/substrate reaction
Outline: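 Human PAD4 (5 nM) preincubated 30 min at 37 °C with compound (top 50 μM, 0.5% DMSO), then 250 μM BAEE for 90 min at 37 °C in pH 7.5 HEPES with 50 μM calcium, 5 μM TPEN, 1 mM DTT. Product derivatized with phenyl glyoxal; citrulline product quantified by RapidFire MS/MS MRM, normalized to internal standard.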

hPAD4 enzyme [2] = biological target: T1, hPAD4 enzyme; experiment: RFMS Assay 2 (rapid-fire mass spectrum PAD4 inhibition assay, peptide substrate); format: biochemical; conditions: 35 nM recombinant human PAD4, substrate TSTGGRQGSHH, room temperature for 30 minutes; read-out: human PAD4 (hPAD4) IC50, RFMS Assay 2
Experimental: Stock compounds were dissolved and stored in 100% DMSO. Compound solutions were prepared via serial dilution at 3-fold intervals in DMSO with top compound concentration at […] in each assay. 0.25 μl of compound solution was transferred from the compound plate to the assay plate by using an acoustic dispenser. Final assay conditions: • Total reaction volume: 25 μl • Assay buffer: […] pH 7.4, 200 mM NaCl, 2 mM CaCl2, 5 mM DTT • 35 nM recombinant human PAD4 • 500 µM TSTGGRQGSHH (SEQ ID NO: 1) • 1.2% DMSO • Stop solution: 10% formic acid
Reaction mixtures were incubated at room temperature for 30 minutes. 10 μl each of the reaction mixtures was then mixed with 40 μl of 10% formic acid in a microtiter plate. The plate was frozen at −80° C. before shipping out on dry ice for RapidFire mass spectroscopy analysis.
Thawed samples were loaded onto the Rapid Fire 300 system (Agilent) wherein they were first sipped for 250 ms and then loaded onto a Agilent “C” (C18) cartridge using a mobile phase of water containing 0.09% formic acid/0.01% trifluoroacetic acid for 3000 ms desalting flowing at a rate of 1.5 ml/min. Once the samples were loaded and washed, a mobile phase of acetonitrile containing 0.09% formic acid/0.01% trifluoroacetic acid was used to elute the samples directly onto a Sciex API4000 triple quadrupole mass spectrometer for 3000 ms at a flow rate of 1.25 ml/min.
MRM transitions for substrate and product were monitored in positive ESI mode at m/z=562.3/969.7 and m/z=562.8/541.3 respectively. The dwell time for each transition was set at 100 ms, and the ESI voltage was used at 5500 with a source temperature of 650° C. Extracted ion peaks for each transition were integrated using the Rapid Fire Integrator software.

T1 sequence (Q9UM07 whole entry): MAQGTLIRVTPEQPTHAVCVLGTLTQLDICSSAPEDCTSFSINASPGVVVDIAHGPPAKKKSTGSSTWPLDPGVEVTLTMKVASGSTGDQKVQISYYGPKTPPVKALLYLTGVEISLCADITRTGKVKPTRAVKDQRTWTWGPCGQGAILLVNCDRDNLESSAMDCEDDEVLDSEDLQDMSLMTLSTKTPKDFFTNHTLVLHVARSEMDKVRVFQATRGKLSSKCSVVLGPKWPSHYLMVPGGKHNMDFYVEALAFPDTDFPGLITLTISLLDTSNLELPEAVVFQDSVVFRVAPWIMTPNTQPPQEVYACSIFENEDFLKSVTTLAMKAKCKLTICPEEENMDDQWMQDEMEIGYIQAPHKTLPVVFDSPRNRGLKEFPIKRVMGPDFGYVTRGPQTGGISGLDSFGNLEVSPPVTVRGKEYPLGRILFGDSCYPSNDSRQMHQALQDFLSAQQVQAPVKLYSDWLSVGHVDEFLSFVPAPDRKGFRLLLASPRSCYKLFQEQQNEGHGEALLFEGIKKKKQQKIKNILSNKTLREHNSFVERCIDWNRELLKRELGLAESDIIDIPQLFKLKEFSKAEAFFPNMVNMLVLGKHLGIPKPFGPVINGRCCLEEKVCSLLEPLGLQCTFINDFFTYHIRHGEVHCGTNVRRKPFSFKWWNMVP

COc1cccc2cc(-c3nc4cc5c(nc4n3C)CCN(C[C@H](N)CF)C5=O)n(CC3(F)CC3)c12 [Example 15, (S)-7-(2-amino-3-fluoropropyl)-2-(1-((1-fluorocyclopropyl)methyl)-7-methoxy-1H-indol-2-yl)-3-methyl-3,5,6,7-tetrahydro-8H-imidazo[4,5-b][1,6]naphthyridin-8-one]
IC50 (hPAD4 enzyme [1]): 11 to 100 nM
IC50 (hPAD4 enzyme [2]): 101 to 500 nM

COc1cccc2cc(-c3nc4cc5c(nc4n3C)CCN(C[C@H]3COCCN3)C5=O)n(CC3(F)CC3)c12 [Example 26, (S)-2-(1-((1-fluorocyclopropyl)methyl)-7-methoxy-1H-indol-2-yl)-3-methyl-7-(morpholin-3-ylmethyl)-3,5,6,7-tetrahydro-8H-imidazo[4,5-b][1,6]naphthyridin-8-one]
IC50 (hPAD4 enzyme [1]): 101 to 500 nM
IC50 (hPAD4 enzyme [2]): 101 to 500 nM

COCCn1c(-c2nc3cc4c(nc3n2C)CCN(C[C@H](N)CF)C4=O)cc2cccc(OC)c21 [Example 2, (S)-7-(2-amino-3-fluoropropyl)-2-(7-methoxy-1-(2-methoxyethyl)-1H-indol-2-yl)-3-methyl-3,5,6,7-tetrahydro-8H-imidazo[4,5-b][1,6]naphthyridin-8-one]
IC50 (hPAD4 enzyme [1]): > 1000 nM
IC50 (hPAD4 enzyme [2]): > 1000 nM

Cn1c(-c2cc3cccc(OC(F)Cn4ccnc4)c3n2CC2CC2)nc2cc3c(nc21)CCN(C[C@H](N)CF)C3=O (single isomer, unassigned) [Example 74b]
IC50 (hPAD4 enzyme [1]): ≤ 10 nM
IC50 (hPAD4 enzyme [2]): 11 to 100 nM

COc1cccc2cc(-c3nc4cc5c(nc4n3C)CCN(C[C@H](N)CF)C5=O)n(Cc3ccno3)c12 [Example 7, (S)-7-(2-amino-3-fluoropropyl)-2-(1-(isoxazol-5-ylmethyl)-7-methoxy-1H-indol-2-yl)-3-methyl-3,5,6,7-tetrahydro-8H-imidazo[4,5-b][1,6]naphthyridin-8-one]
IC50 (hPAD4 enzyme [1]): 11 to 100 nM
IC50 (hPAD4 enzyme [2]): 101 to 500 nM

Cn1c(-c2cc3ccccc3n2CC2CC2)nc2cc3c(nc21)CCN(C[C@H](N)CF)C3=O [Example 20, (S)-7-(2-amino-3-fluoropropyl)-2-(1-(cyclopropylmethyl)-1H-indol-2-yl)-3-methyl-3,5,6,7-tetrahydro-8H-imidazo[4,5-b][1,6]naphthyridin-8-one]
IC50 (hPAD4 enzyme [1]): > 1000 nM
IC50 (hPAD4 enzyme [2]): 501 to 1000 nM

Cn1c(-c2cc3cccc(OCCc4cnoc4)c3n2CC2CC2)nc2cc3c(nc21)CCN(C[C@H](N)CF)C3=O [Example 39, (S)-7-(2-amino-3-fluoropropyl)-2-(1-(cyclopropylmethyl)-7-(2-(isoxazol-4-yl)ethoxy)-1H-indol-2-yl)-3-methyl-3,5,6,7-tetrahydro-8H-imidazo[4,5-b][1,6]naphthyridin-8-one]
IC50 (hPAD4 enzyme [1]): ≤ 10 nM
IC50 (hPAD4 enzyme [2]): 11 to 100 nM

COc1cccc2cc(-c3nc4cc5c(nc4n3C)CCN(C[C@H](N)CF)C5=O)n(CC3CC3)c12 [Example 1, (S)-7-(2-amino-3-fluoropropyl)-2-(1-(cyclopropylmethyl)-7-methoxy-1H-indol-2-yl)-3-methyl-3,5,6,7-tetrahydro-8H-imidazo[4,5-b][1,6]naphthyridin-8-one]
IC50 (hPAD4 enzyme [1]): 101 to 500 nM
IC50 (hPAD4 enzyme [2]): 501 to 1000 nM

CC(Oc1cccc2cc(-c3nc4cc5c(nc4n3C)CCN(C[C@H](N)CF)C5=O)n(CC3CC3)c12)c1cc[nH]n1 (single isomer, unassigned) [Example 49b]
IC50 (hPAD4 enzyme [1]): 101 to 500 nM
IC50 (hPAD4 enzyme [2]): 101 to 500 nM

COCC(=O)N1CCC(c2cccc3cc(-c4nc5cc6c(nc5n4C)CCN(C[C@H](N)CF)C6=O)n(CC4CC4)c23)CC1 [Example 30, (S)-7-(2-amino-3-fluoropropyl)-2-(1-(cyclopropylmethyl)-7-(1-(2-methoxyacetyl)piperidin-4-yl)-1H-indol-2-yl)-3-methyl-3,5,6,7-tetrahydro-8H-imidazo[4,5-b][1,6]naphthyridin-8-one]
IC50 (hPAD4 enzyme [1]): 11 to 100 nM
IC50 (hPAD4 enzyme [2]): ≤ 10 nM

COc1c(F)ccc2cc(-c3nc4cc5c(nc4n3C)CCN(C[C@H](N)CF)C5=O)n(Cc3ccno3)c12 [Example 23, (S)-7-(2-amino-3-fluoropropyl)-2-(6-fluoro-1-(isoxazol-5-ylmethyl)-7-methoxy-1H-indol-2-yl)-3-methyl-3,5,6,7-tetrahydro-8H-imidazo[4,5-b][1,6]naphthyridin-8-one]
IC50 (hPAD4 enzyme [1]): 11 to 100 nM
IC50 (hPAD4 enzyme [2]): 501 to 1000 nM

CC(Oc1cccc2cc(-c3nc4cc5c(nc4n3C)CCN(C[C@H](N)CF)C5=O)n(CC3CC3)c12)c1cc[nH]n1 (single isomer, unassigned) [Example 49a]
IC50 (hPAD4 enzyme [1]): 11 to 100 nM
IC50 (hPAD4 enzyme [2]): 11 to 100 nM

C[C@@H](N)CN1CCc2nc3c(cc2C1=O)nc(-c1cc2ccccc2n1CC1CC1)n3C [Example 24, (R)-7-(2-aminopropyl)-2-(1-(cyclopropylmethyl)-1H-indol-2-yl)-3-methyl-3,5,6,7-tetrahydro-8H-imidazo[4,5-b][1,6]naphthyridin-8-one]
IC50 (hPAD4 enzyme [1]): 11 to 100 nM
IC50 (hPAD4 enzyme [2]): 501 to 1000 nM

COc1cccc2cc(-c3nc4cc5c(nc4n3C)CCN(C[C@H](N)CF)C5=O)n(Cc3nc(C)cs3)c12 [Example 14, (S)-7-(2-amino-3-fluoropropyl)-2-(7-methoxy-1-((4-methylthiazol-2-yl)methyl)-1H-indol-2-yl)-3-methyl-3,5,6,7-tetrahydro-8H-imidazo[4,5-b][1,6]naphthyridin-8-one]
IC50 (hPAD4 enzyme [1]): 11 to 100 nM
IC50 (hPAD4 enzyme [2]): 501 to 1000 nM

COc1cccc2cc(-c3nc4cc5c(nc4n3C)CCN(C[C@H](N)CF)C5=O)n(CC3OCCO3)c12 [Example 16, (S)-2-(1-((1,3-dioxolan-2-yl)methyl)-7-methoxy-1H-indol-2-yl)-7-(2-amino-3-fluoropropyl)-3-methyl-3,5,6,7-tetrahydro-8H-imidazo[4,5-b][1,6]naphthyridin-8-one]
IC50 (hPAD4 enzyme [1]): 101 to 500 nM
IC50 (hPAD4 enzyme [2]): 101 to 500 nM

Cn1c(-c2cc3ccnc(OCCn4ccnc4)c3n2CC2CC2)nc2cc3c(nc21)CCN(C[C@H](N)CF)C3=O [Example 84, (S)-2-(7-(2-(1H-imidazol-1-yl)ethoxy)-1-(cyclopropylmethyl)-1H-pyrrolo[2,3-c]pyridin-2-yl)-7-(2-amino-3-fluoropropyl)-3-methyl-3,5,6,7-tetrahydro-8H-imidazo[4,5-b][1,6]naphthyridin-8-one]
IC50 (hPAD4 enzyme [1]): ≤ 10 nM
IC50 (hPAD4 enzyme [2]): 11 to 100 nM

Cn1c(-c2cc3cccc(OC[C@@H]4CNC(=O)O4)c3n2CC2CC2)nc2cc3c(nc21)CCN(C[C@H](N)CF)C3=O [Example 34, (S)-5-(((2-(7-((S)-2-amino-3-fluoropropyl)-3-methyl-8-oxo-5,6,7,8-tetrahydro-3H-imidazo[4,5-b][1,6]naphthyridin-2-yl)-1-(cyclopropylmethyl)-1H-indol-7-yl)oxy)methyl)oxazolidin-2-one]
IC50 (hPAD4 enzyme [1]): ≤ 10 nM
IC50 (hPAD4 enzyme [2]): 11 to 100 nM

Cc1cn(CCOc2cccc3cc(-c4nc5cc6c(nc5n4C)CCN(C[C@H](N)CF)C6=O)n(CC4CC4)c23)cn1 [Example 72, (S)-7-(2-amino-3-fluoropropyl)-2-(1-(cyclopropylmethyl)-7-(2-(4-methyl-1H-imidazol-1-yl)ethoxy)-1H-indol-2-yl)-3-methyl-3,5,6,7-tetrahydro-8H-imidazo[4,5-b][1,6]naphthyridin-8-one]
IC50 (hPAD4 enzyme [1]): 11 to 100 nM
IC50 (hPAD4 enzyme [2]): 101 to 500 nM

COc1cccc2cc(-c3nc4cc5c(nc4n3C)CCN(C[C@H]3COCCN3)C5=O)n(CC3CC3)c12 [Example 27, (S)-2-(1-(cyclopropylmethyl)-7-methoxy-1H-indol-2-yl)-3-methyl-7-(morpholin-3-ylmethyl)-3,5,6,7-tetrahydro-8H-imidazo[4,5-b][1,6]naphthyridin-8-one]
IC50 (hPAD4 enzyme [1]): 501 to 1000 nM
IC50 (hPAD4 enzyme [2]): > 1000 nM

Cc1cncn1CCOc1cccc2cc(-c3nc4cc5c(nc4n3C)CCN(C[C@H](N)CF)C5=O)n(CC3CC3)c12 [Example 71, (S)-7-(2-amino-3-fluoropropyl)-2-(1-(cyclopropylmethyl)-7-(2-(5-methyl-1H-imidazol-1-yl)ethoxy)-1H-indol-2-yl)-3-methyl-3,5,6,7-tetrahydro-8H-imidazo[4,5-b][1,6]naphthyridin-8-one]
IC50 (hPAD4 enzyme [1]): 11 to 100 nM
IC50 (hPAD4 enzyme [2]): 101 to 500 nM

COc1cccc2cc(-c3nc4cc5c(nc4n3C)CCN(C[C@H](N)CF)C5=O)n(Cc3ncc(C)s3)c12 [Example 10, (S)-7-(2-amino-3-fluoropropyl)-2-(7-methoxy-1-((5-methylthiazol-2-yl)methyl)-1H-indol-2-yl)-3-methyl-3,5,6,7-tetrahydro-8H-imidazo[4,5-b][1,6]naphthyridin-8-one]
IC50 (hPAD4 enzyme [2]): > 1000 nM

CC(Cc1cnco1)Oc1cc(F)cc2cc(-c3nc4cc5c(nc4n3C)CCN(C[C@H](N)CF)C5=O)n(CC3CC3)c12 (single isomer, unassigned) [Example 65b]
IC50 (hPAD4 enzyme [2]): 101 to 500 nM
